The record followed here is US9708334B2, “Substituted 2,4,5,6-tetrahydropyrrolo[3,4-c]pyrazole and 4,5,6,7-tetrahydro-2H-pyrazolo[4,3-c]pyridine compounds as GlyT1 inhibitors” (DART NEUROSCIENCE (CAYMAN) LTD., priority 2014, dated 2017).

Structures are written as SMILES.

The target of the assay is T1, GlyT1 (Homo sapiens, UniProt P48067).
T1 construct: expressed in transfected cells
T1 sequence (P48067 1-706): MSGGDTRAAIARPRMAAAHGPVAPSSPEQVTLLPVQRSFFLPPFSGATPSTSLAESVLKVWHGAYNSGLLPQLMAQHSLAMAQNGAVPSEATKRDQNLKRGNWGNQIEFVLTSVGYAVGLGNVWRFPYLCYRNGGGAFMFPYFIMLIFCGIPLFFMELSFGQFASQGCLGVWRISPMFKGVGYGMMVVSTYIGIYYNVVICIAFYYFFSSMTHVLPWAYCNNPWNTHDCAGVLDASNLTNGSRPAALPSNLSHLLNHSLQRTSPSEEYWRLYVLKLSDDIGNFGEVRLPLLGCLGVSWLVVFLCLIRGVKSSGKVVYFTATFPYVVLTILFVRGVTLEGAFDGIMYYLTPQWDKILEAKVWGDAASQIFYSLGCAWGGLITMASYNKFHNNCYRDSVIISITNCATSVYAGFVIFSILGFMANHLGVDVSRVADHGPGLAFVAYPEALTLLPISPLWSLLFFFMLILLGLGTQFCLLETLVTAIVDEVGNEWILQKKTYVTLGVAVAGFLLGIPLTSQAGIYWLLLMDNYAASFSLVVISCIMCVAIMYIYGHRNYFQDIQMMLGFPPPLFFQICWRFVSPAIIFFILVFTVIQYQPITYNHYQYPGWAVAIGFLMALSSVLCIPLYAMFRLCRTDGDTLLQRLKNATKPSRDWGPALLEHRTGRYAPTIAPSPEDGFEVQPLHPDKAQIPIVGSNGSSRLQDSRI
Briefly: Glycine Transporter 1 (GlyT1) uptake assay, scintillation proximity assay of [14C]-glycine uptake. The settings on record: SPA, four parameter logistic fit, read-out: GlyT1 (pIC50) (converted). In kind it is cell-based. As for the experimental part: Glycine Transporter 1 (GlyT1) Uptake Assay
Plates were then read on a MicroBeta plate counter (Perkin Elmer). Dose-response data for tested compounds were analyzed and curves were fit using a four parameter logistic fit to determine IC50 values. […]
Consider `CC(C)Oc1ccc(C#N)cc1C(=O)N1Cc2cn(CC3CC3(F)F)nc2C1` (stereo not shown) [Example 456, 3-{2-[(2 2-Difluorocyclopropyl)methyl]-2H 4H 5H 6H-pyrrolo[3,4-c]pyrazole-5-carbonyl}-4-(propan-2-yloxy)benzonitrile], for which the IC50 was 0.1 to 1 µM.
For the compound `C[C@H](Oc1ccc(C#N)cc1C(=O)N1Cc2cn(CC3CCC3)nc2C1)C(F)(F)F` [Example 401, 3-[2-(Cyclobutylmethyl)-2H 4H 5H 6H-pyrrolo[3,4-c]pyrazole-5-carbonyl]-4-{[(2S)-1 1 1-trifluoropropan-2-yl]oxy}benzonitrile], the IC50 was 0.1 to 1 µM.
Take `C[C@H](Oc1ccc(S(C)(=O)=O)cc1C(=O)N1Cc2cn(CC3CC3(F)F)nc2C1)C(F)(F)F` (stereo partly drawn) [Example 455, 2-[(2 2-Difluorocyclopropyl)methyl]-5-(5-methanesulfonyl-2-{[(2S)-1 1 1-trifluoropropan-2-yl]oxy}benzoyl)-2H 4H 5H 6H-pyrrolo[3,4-c]pyrazole]: the IC50 is under 0.1 µM.
In the case of `C[C@H](Oc1ccc(C#N)cc1C(=O)N1Cc2cn(-c3ccn4ccnc4c3)nc2C1)C(F)(F)F` [Example 425, 3-(2-{Imidazo[1 2-a]pyridin-7-yl}-2H 4H 5H 6H-pyrrolo[3,4-c]pyrazole-5-carbonyl)-4-{[(2S)-1 1 1-trifluoropropan-2-yl]oxy}benzonitrile], the IC50 is 0.1 to 1 µM.
The figure for `CC(C)Oc1ccc(C#N)cc1C(=O)N1Cc2cn(-c3ccc(F)cc3F)nc2C1` [Example 390, 3-[2-(2 4-Difluorophenyl)-2H 4H 5H 6H-pyrrolo[3,4-c]pyrazole-5-carbonyl]-4-(propan-2-yloxy)benzonitrile] is 0.1 to 1 µM; for `CS(=O)(=O)c1ccc(-c2cccnc2)c(C(=O)N2Cc3cn(-c4ccccc4F)nc3C2)c1` [Example 555, (2-(2-Fluorophenyl)pyrrolo[3,4-c]pyrazol-5(2H,4H,6H)-yl)(5-(methylsulfonyl)-2-(pyridin-3-yl)phenyl)methanone] it is 0.1 to 1 µM; for `CCS(=O)(=O)c1ccc(O[C@@H](C)C(F)(F)F)c(C(=O)N2Cc3cn(-c4cncc(F)c4)nc3C2)c1` [Example 114, 3-{5-[5-(Ethanesulfonyl)-2-{[(2S)-1 1 1-trifluoropropan-2-yl]oxy}benzoyl]-2H 4H 5H 6H-pyrrolo[3,4-c]pyrazol-2-yl}-5-fluoropyridine] it is under 0.1 µM.
In the case of `Cc1cc(-n2cc3c(n2)CN(C(=O)c2c(O[C@H](C)C(F)(F)F)ccc(C#N)c2Cl)C3)ccn1` [Example 287, 2-Chloro-3-[2-(2-methylpyridin-4-yl)-2H 4H 5H 6H-pyrrolo[3,4-c]pyrazole-5-carbonyl]-4-{[(2R)-1 1 1-trifluoropropan-2-yl]oxy}benzonitrile], the IC50 was under 0.1 µM.
Take `COc1c(C#N)ccc(C2(F)CCC2)c1C(=O)N1Cc2cn(-c3cncc(F)c3)nc2C1` [Example 23, 4-(1-Fluorocyclobutyl)-3-[2-(5-fluoropyridin-3-yl)-2H 4H 5H 6H-pyrrolo[3,4-c]pyrazole-5-carbonyl]-2-methoxybenzonitrile]: the IC50 is 0.1 to 1 µM.
As for `COc1c(C#N)ccc(N2CCC(F)(F)C2)c1C(=O)N1Cc2cn(-c3ccc(F)cc3)nc2C1` [Example 514, 4-(3 3-Difluoropyrrolidin-1-yl)-3-[2-(4-fluorophenyl)-2H 4H 5H 6H-pyrrolo[3,4-c]pyrazole-5-carbonyl]-2-methoxybenzonitrile], the figure is under 0.1 µM.
In the case of `Cc1cc(-n2cc3c(n2)CN(C(=O)c2cc(C#N)ccc2OCC(F)(F)F)C3)ccn1` [Example 539, 3-[2-(2-Methylpyridin-4-yl)-2H 4H 5H 6H-pyrrolo[3,4-c]pyrazole-5-carbonyl]-4-(2 2 2-trifluoroethoxy)benzonitrile], the IC50 was 0.1 to 1 µM.
The figure for `COc1c(C#N)ccc(C2(F)CCC2)c1C(=O)N1Cc2cn(-c3ccc(F)cn3)nc2C1` [Example 258, 4-(1-Fluorocyclobutyl)-3-[2-(5-fluoropyridin-2-yl)-2H 4H 5H 6H-pyrrolo[3,4-c]pyrazole-5-carbonyl]-2-methoxybenzonitrile] is 0.1 to 1 µM; for `C[C@H](Oc1ccc(C#N)cc1C(=O)N1Cc2cn(-c3ccncc3)nc2C1)C(F)(F)F` [Example 443, 3-[2-(Pyridin-4-yl)-2H 4H 5H 6H-pyrrolo[3,4-c]pyrazole-5-carbonyl]-4-{[(2S)-1 1 1-trifluoropropan-2-yl]oxy}benzonitrile] it is under 0.1 µM.
As for `CC(Oc1ccc(N2CCOC2=O)cc1C(=O)N1CCc2nn(-c3ccccc3)cc2C1)C(F)(F)F` (stereo not shown) [Example 172, 3-(3-{2-Phenyl-2H 4H 5H 6H 7H-pyrazolo[4,3-c]pyridine-5-carbonyl}-4-[(1 1 1-trifluoropropan-2-yl)oxy]phenyl)-1 3-oxazolidin-2-one], the IC50 was 1 to 10 µM.
As for `CS(=O)(=O)c1ccc(-c2cccc(F)c2)c(C(=O)N2Cc3cn(-c4ccncc4)nc3C2)c1` [Example 142, 4-{5-[2-(3-Fluorophenyl)-5-methanesulfonylbenzoyl]-2H 4H 5H 6H-pyrrolo[3,4-c]pyrazol-2-yl}pyridine], the IC50 is under 0.1 µM.
The figure for `CCS(=O)(=O)c1ccc(OC(C)C)c(C(=O)N2Cc3cn(-c4ccc(F)cc4F)nc3C2)c1` [Example 81, 2-(2 4-Difluorophenyl)-5-[5-(ethanesulfonyl)-2-(propan-2-yloxy)benzoyl]-2H 4H 5H 6H-pyrrolo[3,4-c]pyrazole] is 0.1 to 1 µM; for `C[C@H](Oc1ccc(S(C)(=O)=O)cc1C(=O)N1Cc2cn(-c3ccc(F)c(F)c3)nc2C1)C(F)(F)F` [Example 37, 2-(3 4-Difluorophenyl)-5-(5-methanesulfonyl-2-{[(2S)-1 1 1-trifluoropropan-2-yl]oxy}benzoyl)-2H 4H 5H 6H-pyrrolo[3,4-e]pyrazole] it is under 0.1 µM.
As to `C[C@H](Oc1ccc(S(C)(=O)=O)cc1C(=O)N1Cc2cn(-c3cccc(Cl)c3F)nc2C1)C(F)(F)F` [Example 146, 2-(3-Chloro-2-fluorophenyl)-5-(5-methanesulfonyl-2-{[(2S)-1 1 1-trifluoropropan-2-yl]oxy}benzoyl)-2H 4H 5H 6H-pyrrolo[3,4-c]pyrazole], the IC50 is under 0.1 µM.
The figure for `CC[C@H](C)Cn1cc2c(n1)CN(C(=O)c1cc(C#N)ccc1O[C@@H](C)C(F)(F)F)C2` [Example 418, 3-{2-[(2S)-2-Methylbutyl]-2H 4H 5H 6H-pyrrolo[3,4-c]pyrazole-5-carbonyl}-4-{[(2S)-1 1 1-trifluoropropan-2-yl]oxy}benzonitrile] is 0.1 to 1 µM.
On to `Cc1cc(-n2cc3c(n2)CN(C(=O)c2cc(S(C)(=O)=O)ccc2-c2cccc(F)c2)C3)ccn1` [Example 109, 4-{5-[2-(3-Fluorophenyl)-5-methanesulfonylbenzoyl]-2H 4H 5H 6H-pyrrolo[3,4-c]pyrazol-2-yl}-2-methylpyridine], for which the IC50 was under 0.1 µM.
With `CCC(C)Cn1cc2c(n1)CN(C(=O)c1cc(S(C)(=O)=O)ccc1N1CCC(F)(F)CC1)C2` (stereo in doubt) [Example 429, 4 4-Difluoro-1-(4-methanesulfonyl-2-{2-[(2S)-2-methylbutyl]-2H 4H 5H 6H-pyrrolo[3,4-c]pyrazole-5-carbonyl}phenyl)piperidine], the IC50 was under 0.1 µM.
As for `CC(Oc1ccc(C#N)c(Cl)c1C(=O)N1Cc2cnn(-c3ccc(F)cc3)c2C(C)(C)C1)C(F)(F)F` (stereo not shown) [Example 185, 2-Chloro-3-[1-(4-fluorophenyl)-7 7-dimethyl-1H 4H 5H 6H 7H-pyrazolo[4,3-c]pyridine-5-carbonyl]-4-[(1 1 1-trifluoropropan-2-yl)oxy]benzonitrile], the IC50 is under 0.1 µM.
